Assays:
[1] = test system: 5xFAD transgenic mice; assay: Neuroinflammation, Iba-1 staining of brain slices; format: in vivo; conditions: hippocampal dentate gyrus; compared to a 5xFAD-DMSO control group; FIG. 11
Description: 5xFAD animals were administered with HN-1703 at three doses for 14 days to male heterozygotes aged 6 months (all born within 3 days). The behaviors of mice were measured in a dark cycle in which the mice were active while alternating light and dark in a 12-hour cycle in a breeding room chamber, and the mice were freely accessible to food and water and bred in compliance with experimental animal ethical guidelines of Kyung Hee University. In each group, the HN-1703 was intraperitoneally injected at the same time once a day in a volume of 100 μl to 12 mice in a normal group (wild type littermate), 9 5xFAD mice in a vehicle (DMSO administration), 8 5xFAD mice in a 5 mg/kg administered group, 9 5xFAD mice in a 10 mg/kg administered group, and 9 5xFAD mice in a 20 mg/kg administered group. […] In a behavioral measurement room, humidity (40 to 60%) and temperature (22 to 26° C.) were maintained, and reflected light was maintained to avoid sound and light effects. Behavioral measures were measured in Y-maze, Morris Water Maze, and Passive Avoidance test for 18 days in sequence.
A brain slice immunostaining method was modified and used as described in Heo H et al. (J Ethnopharmacol, 2009). Mice were transcardially perfused with 4% PFA. […]

[2] = test system: primary cultured hippocampal neurons; assay: LC3-eGFP puncta formation assay (autophagy promotion); format: cell-based, rat; conditions: rapamycin and HN-1703 at 0.1 μM and 0.5 μM respectively, 12 hours; FIG. 3A
Description: Primary neurons culture was performed from the hippocampus of rat (SD, Orient Bio) embryonic 16-day (E16) embryos. The left and right hemispheres of the extracted brain were separated using sterile tweezers under a dissecting microscope, the meninges were peeled off, the hippocampus was cut with No. 55 tweezers, and neural progenitor cells were mechanically dissolved in a Ca^2+/Mg^2+-free HBSS (Invitrogen) solution by pipetting with a pasteur pipette (Falcon, 354647). Undissolved tissues or vascular cells were settled, and then a supernatant was taken to measure the cell number and the isolated cells were seeded at 19,000 cells/cm^2 in a 35 mm culture dish coated with poly-L-ornithine (sigma, P3655) and fibronectin (sigma, F4759). The cells were cultured using a serum-free N2 medium (growth medium) added with 10 ng/mL bFGF (Invitrogen) in a 5% CO2 incubator, and the culture medium was replaced after 6 hours and after 24 hours. After 2 days, when the cells proliferated twice or more, subculture was performed.
After 3 days of the primary neural progenitor cell culture, a process of subculturing with 0.05% trypsin was repeated twice, and DNA electroporation or transfection was performed before seeding. […]
The number of cell nuclei labeled with DAPI and the number of cells expressing green fluorescence by overlapping LC3-eGFP expression and DAPI labeling were measured. The number of eGFP-LC3 puncta was measured per cell, and the signal intensity of puncta was measured using a confocal laser microscope program. […]
The autophagy promoting effect of HN-1703 in neurons differentiated by culturing hippocampal neural progenitor cells from rat embryos (E16) was evaluated by performing an LC3-eGFP puncta formation assay. The neural progenitor cells into which an LC3-eGFP recombinant gene was introduced by electroporation were differentiated into neurons, treated with rapamycin and HN-1703 at concentrations of 0.1 μM and 0.5 μM for 12 hours, respectively, and the puncta of LC3-GFP were scanned with a confocal laser microscope (Zeiss, LSM800) to measure the fluorescence intensity of LC3-eGFP and the number of puncta, and the results were illustrated in FIG. 3. Specifically, FIG. 3A illustrates confocal scanning micrographs of LC3-eGFP puncta formation after treated primary cultured hippocampal neurons overexpressing an LC3-eGFP fusion protein with HN-1703, and quantifying the number and fluorescence intensity of LC3-eGFP puncta per cell, and FIG. 3B illustrates a result of LC3-II turnover analysis.

[3] = test system: primary cultured neurons; assay: LC3-II turnover analysis (LC3 immunoblot); format: cell-based, rat; conditions: FIG. 3B

COc1cc(OC)c2c(=O)c3cc4c(cc3oc2c1)OCO4 [HN-1703, 7,9-dimethoxy-10H-[1,3]dioxolo[4,5-b]xanthen-10-one]
Iba-1 staining (activated microglia) [1]: significantly reduced | increase of the number of LC3-eGFP puncta compared to a control group [2]: ≥ 85% | increase of the signal intensity of LC3-eGFP puncta compared to the control group [2]: ≥ 45% | LC3-II formation compared to the control group ([3]; in the presence of bafilomycin A1, a lysosome mature inhibitor): significantly increased LC3-II formation | LC3-II (autophagy activation marker) compared to the control group ([3]; up to 36 hours after treating the compound): significantly increased LC3-II

Reference: patent publication US12605358B2, “Composition for preventing or treating nervous system diseases comprising compound that inhibits mTOR signaling pathway as active ingredient” (ALIAD BIOPHARMA, priority 2021, dated 2026)
